Where two headings read alike, the source gives them in different places.
Tests used:
Target C = assay: RT-qPCR canonical junction panel assay, Target C mRNA; assay type: cell-based; settings: Table 4, read-out: Target C IC50 (decrease in CJ mRNA levels)
Experimental: Compounds described herein were used to modulate RNA transcript abundance in cells. The expression of a target mRNA was measured by detecting the formation of an exon-exon junction in the canonical transcript (CJ). A compound mediated exon-inclusion event was detected by observing an increase in formation of a new junction with an alternative exon (AJ). Real-time qPCR assays were used to detect these splicing switches and interrogate the potency of various compounds towards different target genes. A high-throughput real time quantitative PCR (RT-qPCR) assay was developed to measure these two isoforms of the mRNA (CJ and AJ) for exemplary genes, such as HTT, SMN2, and MYB, together with a control housekeeping gene, GAPDH or GUSB or PPIA, used for normalization. Briefly, the A673 or K562 cell line was treated with various compounds described herein (e.g., compounds of Formula (I)). After treatment, the levels of the HTT, MYB, or SMN2 mRNA targets were determined from each sample of cell lysate by cDNA synthesis followed by qPCR.
The data analysis was performed by first determining the ΔCt vs the housekeeper gene. This ΔCt was then normalized against the DMSO control (ΔΔCt) and converted to RQ (relative quantification) using the 2^(−ΔΔCt) equation. The RQ were then converted to a percentage response by arbitrarily setting an assay window of 3.5 and 4.0 ΔCt for HTT-CJ and MYB-CJ respectively and an assay window of 9 and 3 ΔCt for HTT-AJ and MYB-AJ in 96 well format (50,000 K562 cells/well and 15,000 A673 cells per well) and an assay window of 3 and 4 ΔCt for HTT-CJ and MYB-CJ respectively and an assay window of 5 and 3 ΔCt for HTT-AJ and MYB-AJ respectively in 384 well format (8,000 K562 cells/well example). […] The percentage response was then fitted to the 4 parametric logistic equation to evaluate the concentration dependence of compound treatment. The increase in AJ mRNA is reported as AC50 (compound concentration having 50% response in AJ increase) while the decrease in CJ mRNA levels is reported as IC50 (compound concentration having […] in CJ decrease).
Additional studies were carried out for a larger panel of genes using the protocol provided above. The junction between flanking upstream and downstream exons was used to design canonical junction Qpcr assays. At least one of the forward primer, reverse primer or the CY5-labeled 5′ nuclease probe (with 3′ quencher such as ZEN/Iowa Black FQ) was designed to overlap with the exon junction to capture the CJ Mrna transcript. BLAST was used to confirm the specificity of the probeset and parameters suCH As melting temperature, GC content, amplicon size, and primer dimer formation are considered during their design. Data for the decrease in CJ Mrna levels for four exemplary genes (HTT, SMN2, MYB, and Target C) analyzed in this panel are reported as IC50 (compound concentration having […] in CJ decrease).

MYB mRNA = assay: RT-qPCR splicing assay, MYB mRNA canonical (CJ) and alternative (AJ) junction; assay type: cell-based, human; settings: Homo sapiens; for AC50: MYB alternative junction mRNA increase, read-out: MYB AJ (increase in alternative junction mRNA, AC50)
Outline: (§1)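 Canonical and alternative-exon junction isoforms were quantified by RT-qPCR in cell lysates, with ΔCt against a housekeeper (GAPDH/GUSB/PPIA), then ΔΔCt vs DMSO, converted to 2^(−ΔΔCt) and percent response. K562 or A673 cells were exposed for 24 h to 11 concentrations (3-fold, top final 10 uM).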

SMN2 mRNA = assay: RT-qPCR splicing assay, SMN2 mRNA; assay type: cell-based, human; settings: Homo sapiens, canonical junction qPCR panel, Table 4; read-out: SMN2 IC50 (decrease in CJ mRNA levels)
Outline: as §1

K562 cells = assay: Cell Titer Glo 2.0 cell viability (toxicity) assay, K562; settings: 500 cells/well, 72 hours
HTT mRNA = assay: RT-qPCR splicing assay, HTT mRNA canonical (CJ) and alternative (AJ) junction; assay type: cell-based, human; settings: Homo sapiens; for AC50: HTT alternative junction mRNA increase, read-out: HTT AJ (increase in alternative junction mRNA, AC50)
Outline: as §1

[1] = RT-qPCR, MYB canonical junction mRNA decrease, read-out: MYB CJ (decrease in canonical junction mRNA, IC50)
[2] = canonical junction qPCR panel, Table 4, read-out: MYB IC50 (decrease in CJ mRNA levels)
[3] = RT-qPCR, HTT canonical junction mRNA decrease, read-out: HTT CJ (decrease in canonical junction mRNA, IC50)
[4] = canonical junction qPCR panel, Table 4, read-out: HTT IC50 (decrease in CJ mRNA levels)

## Cc1nc(-c2cc3cn(C)nc3cc2O)nc2ccc(N3C[C@@H](C)N[C@@H](C)C3)cc12 [Compound 782, 5-(6-((3S,5R)-3,5-dimethylpiperazin-1-yl)-4-methylquinazolin-2-yl)-2-methyl-2H-indazol-6-ol 2,2,2-trifluoroacetate]
Target C
  IC50: > 10000 nM
MYB mRNA; RT-qPCR
  AC50: 100 to 1000 nM
MYB mRNA; [1]
  IC50: 100 to 1000 nM
MYB mRNA; [2]
  IC50: 100 to 1000 nM
SMN2 mRNA
  IC50: < 100 nM
K562 cells
  Effect of Exemplary Compounds on Cell Viability, K562: B (B represents 100-1000 nM)
HTT mRNA; RT-qPCR
  AC50: > 10000 nM
HTT mRNA; [3]
  IC50: 1000 to 10000 nM
HTT mRNA; [4]
  IC50: 1000 to 10000 nM

## Cc1nc(-c2cc3cn(C)nc3c(C)c2O)nc2ccc(N3C[C@@H](C)N[C@@H](C)C3)cc12 [Compound 783, 5-{6-[(3R,5S)-3,5-dimethylpiperazin-1-yl]-4-methylquinazolin-2-yl}-2,7-dimethylindazol-6-ol]
Target C
  IC50: > 10000 nM
MYB mRNA; RT-qPCR
  AC50: 100 to 1000 nM
MYB mRNA; [1]
  IC50: 100 to 1000 nM
MYB mRNA; [2]
  IC50: 100 to 1000 nM
SMN2 mRNA
  IC50: < 100 nM
K562 cells
  Effect of Exemplary Compounds on Cell Viability, K562: B (B represents 100-1000 nM)
HTT mRNA; RT-qPCR
  AC50: > 10000 nM
HTT mRNA; [3]
  IC50: > 10000 nM
HTT mRNA; [4]
  IC50: > 10000 nM

## Cc1c(O)c(-c2nc(C(N)=O)c3cc(N4C[C@@H](C)N[C@@H](C)C4)ccc3n2)cc2cn(C)nc12 [Compound 784, 6-[(3R,5S)-3,5-dimethylpiperazin-1-yl]-2-(6-hydroxy-2,7-dimethylindazol-5-yl)quinazoline-4-carboxamide]
Target C
  IC50: > 10000 nM
MYB mRNA; RT-qPCR
  AC50: < 100 nM
MYB mRNA; [1]
  IC50: < 100 nM
MYB mRNA; [2]
  IC50: < 100 nM
SMN2 mRNA
  IC50: < 100 nM
K562 cells
  Effect of Exemplary Compounds on Cell Viability, K562: A (A represents <100 nM)
HTT mRNA; RT-qPCR
  AC50: > 10000 nM
HTT mRNA; [3]
  IC50: 1000 to 10000 nM
HTT mRNA; [4]
  IC50: 1000 to 10000 nM

## C[C@@H]1CN(c2ccc3nc(-c4cc5cn(C)nc5cc4O)nc(C(N)=O)c3c2)C[C@H](C)N1 [Compound 785, 6-((3R,5S)-3,5-dimethylpiperazin-1-yl)-2-(6-hydroxy-2-methyl-2H-indazol-5-yl)quinazoline-4-carboxamide 2,2,2-trifluoroacetate]
Target C
  IC50: 1000 to 10000 nM
MYB mRNA; RT-qPCR
  AC50: 100 to 1000 nM
MYB mRNA; [1]
  IC50: < 100 nM
MYB mRNA; [2]
  IC50: < 100 nM
SMN2 mRNA
  IC50: < 100 nM
K562 cells
  Effect of Exemplary Compounds on Cell Viability, K562: A (A represents <100 nM)
HTT mRNA; RT-qPCR
  AC50: > 10000 nM
HTT mRNA; [3]
  IC50: 1000 to 10000 nM
HTT mRNA; [4]
  IC50: 1000 to 10000 nM

## Cc1c(O)c(-c2ncc3cc(N4CCC(N5CCC5)CC4)ccc3n2)cc2cn(C)nc12 [Compound 786, 5-{6-[4-(azetidin-1-yl)piperidin-1-yl]quinazolin-2-yl}-2,7-dimethylindazol-6-ol]
Target C
  IC50: 100 to 1000 nM
MYB mRNA; RT-qPCR
  AC50: 100 to 1000 nM
MYB mRNA; [1]
  IC50: 100 to 1000 nM
MYB mRNA; [2]
  IC50: 100 to 1000 nM
SMN2 mRNA
  IC50: < 100 nM
K562 cells
  Effect of Exemplary Compounds on Cell Viability, K562: B (B represents 100-1000 nM)
HTT mRNA; RT-qPCR
  AC50: 100 to 1000 nM
HTT mRNA; [3]
  IC50: 100 to 1000 nM
HTT mRNA; [4]
  IC50: 100 to 1000 nM

## Cn1cc2cc(-c3ncc4cc(N5CCC(N6CCC6)CC5)ccc4n3)cc(F)c2n1 [Compound 787, 6-[4-(azetidin-1-yl)piperidin-1-yl]-2-(7-fluoro-2-methylindazol-5-yl)quinazoline]
Target C
  IC50: 1000 to 10000 nM
MYB mRNA; RT-qPCR
  AC50: 100 to 1000 nM
MYB mRNA; [1]
  IC50: 100 to 1000 nM
MYB mRNA; [2]
  IC50: 100 to 1000 nM
SMN2 mRNA
  IC50: < 100 nM
K562 cells
  Effect of Exemplary Compounds on Cell Viability, K562: B (B represents 100-1000 nM)
HTT mRNA; RT-qPCR
  AC50: 1000 to 10000 nM
HTT mRNA; [3]
  IC50: 1000 to 10000 nM
HTT mRNA; [4]
  IC50: 1000 to 10000 nM

## Cc1nc(-c2cc(F)c3nn(C)cc3c2)nc2ccc(N3CCC(N4CCC4)CC3)cc12 [Compound 788, 6-[4-(azetidin-1-yl)piperidin-1-yl]-2-(7-fluoro-2-methylindazol-5-yl)-4-methylquinazoline]
Target C
  IC50: 1000 to 10000 nM
MYB mRNA; RT-qPCR
  AC50: 100 to 1000 nM
MYB mRNA; [1]
  IC50: 1000 to 10000 nM
MYB mRNA; [2]
  IC50: 1000 to 10000 nM
SMN2 mRNA
  IC50: < 100 nM
K562 cells
  Effect of Exemplary Compounds on Cell Viability, K562: B (B represents 100-1000 nM)
HTT mRNA; RT-qPCR
  AC50: 1000 to 10000 nM
HTT mRNA; [3]
  IC50: 1000 to 10000 nM
HTT mRNA; [4]
  IC50: 1000 to 10000 nM

Source: patent publication US20250092065A1, “2-(INDAZOL-5-YL)-6-(PIPERIDIN-4-YL)-1,7-NAPHTHYRIDINE DERIVATIVES AND RELATED COMPOUNDS AS MODULATORS FOR SPLICING NUCLEIC ACIDS AND FOR THE TREATMENT OF PROLIFERATIVE DISEASES” (REMIX THERAPEUTICS INC., priority 2022, published 2025)
